Reference: patent US20230278972A1, “SUBSTITUTED HALOALKYL SULFONANILIDE HERBICIDES” (FMC Corporation, priority 2020, published 2023)

Experiments:
Type in all cases: in vivo
kochia (Bassia scoparia) = assay: Test A1 postemergence, kochia; settings: Postemergence
Procedure, shortened: (§1)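 Test compounds were formulated in a non-phytotoxic solvent mixture containing a surfactant. For preemergence, seeds sown in a loam soil–sand blend received a directed soil spray. For postemergence, potted plants in the same soil, 2 to 10 cm tall at the one- to two-leaf stage, were sprayed.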

[1] = tested on: blackgrass (Alopecurus myosuroides); assay: Test A1 preemergence, blackgrass
Procedure, shortened: (§2)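 Seeds were first planted into a blend of loam soil and sand and given a preemergence directed soil spray. In parallel, pots of the same soil were sown for postemergence application once plants reached 2 to 10 cm and the one- to two-leaf stage. Both used surfactant-containing non-phytotoxic solvent formulations.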

[2] = tested on: goosegrass (Eleusine indica); assay: Test A1 preemergence, goosegrass
Procedure, shortened: as §2

soybean (Glycine max) = assay: Test A1 postemergence, soybean; settings: Postemergence
Procedure, shortened: as §1

[3] = tested on: Pigweed, Palmer (palmer amaranth, palmer pigweed, Amaranthus palmeri); assay: Test A1 postemergence, Pigweed, Palmer; settings: Postemergence
Procedure, shortened: as §1

[4] = tested on: wheat (Triticum aestivum); assay: Test A1 postemergence, wheat; settings: Postemergence
Procedure, shortened: as §1

[5] = tested on: ragweed (common ragweed, Ambrosia artemisiifolia); assay: Test A1 postemergence, ragweed; settings: Postemergence
Procedure, shortened: as §1

[6] = 31 g ai/ha, 0 to 100 scale (0 no effect, 100 complete control), 10 days
[7] = 31 g ai/ha, 0 to 100 scale (0 no effect, 100 complete control)
[8] = 125 g ai/ha, 0 to 100 scale, 0 no effect, 100 complete control

Structure (SMILES) | Plant response rating, Kochia (kochia (Bassia scoparia); [6]) | Plant response rating, Kochia (kochia (Bassia scoparia); 125 g ai/ha, 0 to 100 scale) | Plant response rating, Blackgrass [1, 7] | Plant response rating, Blackgrass [1, 8] | Plant response rating, Goosegrass [2, 7] | Plant response rating, Goosegrass [2, 8] | Plant response rating, Soybean (soybean (Glycine max); [6]) | Plant response rating, Soybean (soybean (Glycine max); 125 g ai/ha, 0 to 100 scale) | Plant response rating, Pigweed, Palmer [3, 6] | Plant response rating, Pigweed, Palmer ([3]; 125 g ai/ha, 0 to 100 scale) | Plant response rating, Wheat [4, 6] | Plant response rating, Wheat ([4]; 125 g ai/ha, 0 to 100 scale) | Plant response rating, Ragweed [5, 6] | Plant response rating, Ragweed ([5]; 125 g ai/ha, 0 to 100 scale)
CCCCOC1CC(c2cc(NS(=O)(=O)C(F)(F)F)c(C)cc2C)=NO1 (stereo not shown) [Compound 323] | 50 | 60 | 0 | 30 | 50 | 90 | 0 | 30 | 20 | 60 | 0 | 50 | 0 | 50
Cc1cc(F)c(C2=NOC3CCCC23)cc1NS(=O)(=O)C(F)(F)F (stereo not shown) [Compound 310] | 0 | 20 | 0 | 0 | 0 | 0 | 20 | 30 | 0 | 0 | 0 | 20 | 0 | 30
Cc1c(NS(=O)(=O)C(F)(F)F)cc(C(=O)N2CCC(F)CC2)c(C)c1C [Compound 358] | 0 | 70 | 0 | 10 | 30 | 100 | 50 | 70 | 0 | 40 | 0 | 0 | 80 | 80
Cc1cc(C2CC2)c(C2=NOC3CCCC23)cc1N(COC(=O)C(C)(C)C)S(=O)(=O)C(F)(F)F (stereo not shown) [Compound 355] | 0 | 50 | 0 | 0 | 20 | 90 | 10 | 40 | 0 | 30 | 20 | 50 | 60 | 60
Cc1cc(C)c(N(C(=O)OCC(C)C)S(=O)(=O)C(F)(F)F)cc1C1=NOC2CCCC12 (stereo not shown) [Compound 299] | 0 | 20 | 0 | 30 | 60 | 90 | 40 | 50 | 10 | 10 | 30 | 70 | 40 | 70
Cc1c(NS(=O)(=O)C(F)(F)F)cc(C(=O)N2CCC(Cl)CC2)c(C)c1C [Compound 356] | 10 | 50 | 0 | 10 | 90 | 90 | 50 | 80 | 0 | 10 | 0 | 30 | 70 | 80
C#CCN(C)C(=O)c1cc(NS(=O)(=O)C(F)(F)F)c(Cl)c(F)c1C [Compound 337] | 40 | 70 | 40 | 60 | 50 | 100 | 50 | 70 | 30 | 50 | 0 | 30 | 50 | 90
CCOC1CC(c2cc(NS(=O)(=O)C(F)(F)F)c(C)cc2C)=NO1 (stereo not shown) [Compound 318] | 30 | 90 | 30 | 70 | 80 | 100 | 30 | 40 | 30 | 50 | 50 | 70 | 60 | 80
Cc1c(NS(=O)(=O)C(F)(F)F)cc(C(=O)N(C)C)c(C)c1C [Compound 288] | 0 | 10 | 0 | 0 | 30 | 90 | 30 | 40 | 0 | 30 | 0 | 10 | 30 | 80
Cc1cc(C2CC2)c(C2=NOC3CCCC23)cc1NS(=O)(=O)C(F)(F)F (stereo not shown) [Compound 307] | 0 | 30 | 0 | 50 | 80 | 100 | 10 | 50 | 0 | 40 | 30 | 40 | 0 | 80
Cc1c(C(=O)N2CCC(Cl)CC2)cc(N(COC(=O)C(C)(C)C)S(=O)(=O)C(F)(F)F)c(C)c1C [Compound 359] | 30 | 40 | 0 | 0 | 0 | 90 | 50 | 60 | 0 | 20 | 0 | 30 | 30 | 70
CCC1ON=C(c2cc(N(COC(=O)C(C)(C)C)S(=O)(=O)C(F)(F)F)c(C)cc2C)C1CC (stereo not shown) [Compound 347] | 10 | 60 | 10 | 30 | 10 | 60 | 40 | 50 | 20 | 50 | 0 | 40 | 40 | 70
Cc1cc(C)c(N(COC(=O)C(C)(C)C)S(=O)(=O)C(F)(F)F)cc1C(=O)N1CCC(c2ccccc2)CC1 [Compound 364] | 0 | 30 | 0 | 0 | 0 | 0 | 0 | 10 | 0 | 0 | 0 | 0 | 0 | 0
Cc1c(C(=O)N2CCCCC2)cc(N(COC(=O)C(C)(C)C)S(=O)(=O)C(F)(F)F)c(C)c1C [Compound 329, [[(Trifluoromethyl)sulfonyl][2,3,4-trimethyl-5-(1-piperidinylcarbonyl)phenyl]amino]methyl 2,2-dimethylpropanoate] | 10 | 20 | 0 | 0 | 20 | 100 | 60 | 60 | 10 | 10 | 0 | 0 | 40 | 70
Cc1cc(C)c(N(COC(=O)C(C)C)S(=O)(=O)C(F)(F)F)cc1C1=NOC2CCCC12 (stereo not shown) [Compound 308] | 20 | 70 | 0 | 50 | 80 | 90 | 40 | 60 | 0 | 0 | 10 | 50 | 50 | 90
Cc1c(C(=O)N(C)C)cc(NS(=O)(=O)C(F)(F)F)c(Cl)c1F [Compound 320] | 30 | 70 | 0 | 0 | 80 | 100 | 20 | 70 | 40 | 80 | 0 | 30 | 40 | 80
Cc1c(C(=O)N2CCOCC2)cc(N(COC(=O)C(C)(C)C)S(=O)(=O)C(F)(F)F)c(C)c1C [Compound 324, [[(Trifluoromethyl)sulfonyl][2,3,4-trimethyl-5-(4-morpholinylcarbonyl)phenyl]amino]methyl 2,2-dimethylpropanoate] | 30 | 50 | 20 | 30 | 80 | 100 | 50 | 60 | 30 | 70 | 0 | 30 | 70 | 70
